Measurements reported in US6376710B2, “Amidine compounds and their use as pesticides” (Sumitomo Chemical Co., Ltd., priority 2000, dated 2002).
Where two headings read alike, the source gives them in different places.

Key:
Type in all cases: in vivo
[1] = test system: house fly (Musca domeestica); test: Test Example 3: treated filter paper with sucrose bait, house fly female adults, mortality; conditions: 24 h
Experimental: On the bottom of a polyethylene cup of 5.5 cm in diameter was placed a filter paper of the same size, to which a water dilution (500 ppm) of each of the formulations obtained from present compounds 1, 2, 3, 4, 5, 6, 7, 8, 9, 10, 11, 12, 13, 14, 15, 16, 17, 18, 19, 20, 21, 25, 26, 27, 28, 29, 32, 33, 34, 35, 36, 37, 38, 39, 40, 41, 42, 43, 44, 45, 47, 51, 52, 53, 54, 55, 60, and 61 according to Formulation Example 1 was added dropwise in an amount of 0.7 ml, and the cup was uniformly charged with about 30 mg of sucrose as a bait. Ten female adults of house fly (Musca domeestica) were set free in each cup, which was then kept covered. After 1 day, their survival was examined to determine the mortality.

[2] = test system: German cockroach (Blattella germanica); test: Test Example 2: treated filter paper with sucrose bait, German cockroach male adults, mortality; conditions: 144 h
[3] = test system: common mosquito (Culex pipiens pallens); test: Test Example 4: treated water, common mosquito final-instar larvae, mortality; conditions: 192 h

CSC(F)(F)C(N)=Nc1c([N+](=O)[O-])cc(C(F)(F)F)cc1[N+](=O)[O-] [present compound 51, N-(2,6-Dinitro-4-trifluoromethylphenyl)-2,2-difluoro-2-methylthioacetamidine]
100%: mortality at 500 µg/mL [1] | mortality at 500 µg/mL [2] | mortality at 3.5 ppm [3]

CN(C)C(=Nc1c(Cl)cc(C(F)(F)F)cc1Cl)C(F)(F)C(F)(F)F [present compound 53, N′-(2,6-Dichloro-4-trifluoromethylphenyl)-2,2,3,3,3-pentafluoro-N,N-dimethylpropionamidine]
100%: mortality at 500 µg/mL [1] | mortality at 500 µg/mL [2] | mortality at 3.5 ppm [3]

CN(C)C(=Nc1c(Cl)cc(C(F)(F)F)cc1Cl)C(F)(F)Cl [present compound 54, 2-Chloro-N′-(2,6-dichloro-4-trifluoromethylphenyl)-2,2-difluoro-N,N-dimethylacetamidine]
100%: mortality at 500 µg/mL [1] | mortality at 500 µg/mL [2] | mortality at 3.5 ppm [3]

CNC(=Nc1c(Cl)cc(C(F)(F)F)cc1Cl)C(F)(F)F [present compound 55, N′-(2,6-Dichloro-4-trifluoromethylphenyl)-2,2,2-trifluoro-N-methylacetamidine]
100%: mortality at 500 µg/mL [1] | mortality at 500 µg/mL [2] | mortality at 3.5 ppm [3]

COC(=O)NC(=Nc1c(Cl)cc(C(F)(F)F)cc1Cl)C(F)(F)C(F)(F)F [present compound 60, [1-(2,6-dichloro-4-trifluoromethylphenylimino)-2,2,3,3,3-pentafluoropropyl]carbamic acid methyl ester]
100%: mortality at 500 µg/mL ([1]; water dilution (500 ppm) of flowable (Formulation Example 1), 0.7 ml on filter paper, female adults, after 1 day, read-out: mortality) | mortality at 500 µg/mL ([2]; water dilution (500 ppm) of flowable (Formulation Example 1), 0.7 ml on filter paper, male adults, after 6 days, read-out: mortality) | mortality at 3.5 ppm ([3]; active ingredient 3.5 ppm in ion-exchanged water (0.7 ml of 500 ppm dilution), final-instar larvae, after 8 days, read-out: mortality)

CC(=O)NC(=Nc1c(Cl)cc(C(F)(F)F)cc1Cl)C(F)(F)C(F)(F)F [present compound 61, N-[1-(2,6-dichloro-4-trifluoromethylphenylimino)-2,2,3,3,3-pentafluoropropyl]-acetamide]
100%: mortality at 500 µg/mL [1] | mortality at 500 µg/mL [2] | mortality at 3.5 ppm [3]
